For series [1], the target named is T1, cellodextrin phosphorylase (CDP) (Acetivibrio thermocellus, UniProt Q93HT8).
T1 construct: gene cdp-ym4
The series is described as follows: capillary electrophoresis competition assay of glucan polymerization. Format: biochemical.

Series [2] deals with T1, cellodextrin phosphorylase (CDP). Nature of the series: X-ray crystallography, […] Å. The series is classed as binding.
Substrate in series [3]: OC[C@H]1O[C@@H](Oc2ccccc2)[C@H](O)[C@@H](O)[C@@H]1O
Nature of the series: phosphate release assay, Michaelis-Menten fit. Format: biochemical, Acetivibrio thermocellus. To be noted: acceptor, synthetic direction, 10 mM Glc-1-P, HEPES 50 mM pH 7.5, 21 °C.

This note sets out measurements from article PMC5667895, “Cellodextrin phosphorylase from Ruminiclostridium thermocellum: X-ray crystal structure and substrate specificity analysis” (Carbohydrate Research, 2017).

Turning to `OC1OC[C@@H](O[C@@H]2OC[C@@H](O[C@@H]3OC[C@@H](O)[C@H](O)[C@H]3O)[C@H](O)[C@H]2O)[C@H](O)[C@H]1O` (stereo partly drawn) [(β-1→4-Xyl)3], the “capillary electrophoresis competition assay of glucan polymerization” value in series [1] (10 mM xylotriose vs 13.5 μM (β-1→4-Glc)6-APTS, 10 mM Glc-1-P, HEPES 50 mM pH 7.5, 40 °C, acceptor competition) is reported as “suggesting binding of xylotriose to the active site of the enzyme”. In the case of `N[C@H]1[C@H](O[C@H]2[C@H](O)[C@@H](O)[C@H](O[C@H]3[C@H](O)[C@@H](O)C(O)O[C@@H]3CO)O[C@@H]2CO)O[C@H](CO)[C@@H](O)[C@@H]1O` (stereo partly drawn) [(β-1→4-GlcN(Glc)2)], in series [1] (5 mM trisaccharide vs 0.5 mM (β-1→4-Glc)3-APTS, 50 mM Glc-1-P, HEPES 50 mM pH 7.6, 40 °C, acceptor competition, also an acceptor substrate), the “capillary electrophoresis competition assay of glucan polymerization” value is recorded as “the average extension of (β-1→4-Glc)3-APTS reduced substantially”. In the case of `O=P(O)(O)O[C@H]1O[C@H](CO)[C@@H](O)[C@H](O)[C@@H]1O` [Man-1-P], the “capillary electrophoresis competition assay of glucan polymerization” value in series [1] (10 mM Man-1-P vs 1 mM Glc-1-P and 2 μM (β-1→4-Glc)6-APTS, HEPES 50 mM pH 7.5, 40 °C, competitive with donor) was “Man-1-P caused a great decrease in glucan oligomer length”. Turning to `O=P(O)(O)O` [phosphate], the “X-ray crystallography, 3.0 Å” value in series [2] (crystal grown with 10 mM phosphate buffer, active site, adjacent to the glucan) is “interpreted as a cellotetraose molecule with an adjacent phosphate ion”. For `OC[C@H]1O[C@@H](O[C@H]2[C@H](O)[C@@H](O)[C@H](O[C@H]3[C@H](O)[C@@H](O)[C@H](O[C@H]4[C@H](O)[C@@H](O)C(O)O[C@@H]4CO)O[C@@H]3CO)O[C@@H]2CO)[C@H](O)[C@@H](O)[C@@H]1O` (stereo partly drawn) [(β-1→4-Glc)4], in series [2] (crystal soaked with 10 mM cellohexaose, density modelled as cellotetraose, with phosphate, active site subsites −1 to +3), the “X-ray crystallography, 3.0 Å” value was “additional electron density in the active site cleft, which was interpreted as a cellotetraose molecule”.

B1: cellodextrin phosphorylase (CDP) (Acetivibrio thermocellus) (protein)
chain: MITKVTARNNKITPVELLNQKFGNKINLGNFADAVFTDAAFKNVAGIANLPMKAPVMQVLMENCIVSKYLKQFVPDRSVCFVEEGQKFYIVLEDGQKIEVPEDVNKALKATVSDVKHWAGYLTEDGEHVIDLLKPAPGPHFYVNLLIGNRLGFKRTLQTTPKSVVDRFGRGSFRSHAATQVLATRFDMRQEENGFPANRQFYLYEDGKQIFYSALIDDNIVEATCKHSCNRTVIKYKTACNLEITRTIFLVPHKKGFPLATELQRIEIKNASDKARNLSITYTGMFGTGAVHAIFEDVTYTNVIMQSAALYNDKGEFIGITPDYYPEEFKQDTRFVTMIVRNGDEKSFPQSFCTDYNDFVGTGTLEHPAGGCNLNNKLNRKGPGFFALGAPFTVEPGKTVIIDTFTGLSSSKDNENYSDAVMLRELDNLLRYFEKSESVEETLNEIINFHENYGKYFQFNTGNKLFDSGFNRNLAFQVLYQTFMSRSFGQTQKGYREIGFREIQDLFASMYYFINIGYQDFVKELLFEWTANVYKMGYANHNFYWVGKQPGLYSDDSLWLLQAYYRYIIYTKDTSVLNEEVPVADGNNEKRAVRETLKAIIQYSACISVGDHGLPLLDLADWNDCLKIASNSIDGATKEKLYYEQLKKTNGKYGDRFMSDYSESVMNAFLLKLAIDHLAEIATLDNDTQLAQQMSELSKEVTDRIQKHAWKENFFARVLINRYKDGSYTYLGAKGDKLSADPNIDGVYFLNSFAWSVLSDVATDEQIAIMVDVIKKHLLTPYGLRLVTPADLNKIANDTATGHYFFGDRENGAVFKHASMMAVAALIKAAKKVKDNELAKEMARIAYFMIDLVLPYKNLENPFQVAGNPRICTQYINTDTGENIGPLLSGTATWLNLNLISLAGIEYTRDGISFNPILREEETQLNFTLKAPKCSYKFSITKPVGFARMESSEYELFVDGQKIDNTVIPMYTDEKEHIVTLKFK
The term Km denotes the substrate concentration at which the rate is half of its maximum. As a reminder, the kcat is the maximal rate divided by the concentration of active sites. For orientation: kcat/Km means the turnover number divided by the Michaelis constant. For the molecule B1, in series [3], the Km was determined as 24 ± 13 mM, the catalytic constant (kcat) came to 15 ± 6.3 s⁻¹ and the kcat/Km amounted to 630 M⁻¹ s⁻¹.
